Test results: patent US20220332706A1, “CRYSTALLINE FORMS OF A JAK2 INHIBITOR” (Impact Biomedicines, Inc., priority 2019, published 2022)
≈ marks a conversion by molar mass, not a printed value. Like-named read-outs stand apart in the source and are kept apart here. Each block holds one compound with its values, some of them ahead of it.

How the values were obtained:
Format in all cases: physicochemical
[1] = Relative stability (competitive ripening) study of Forms A and B; settings: for Final Form Observed: seven days, suspension of ~10 mg Form A and ~10 mg Form B
Experimental: Saturated suspensions of Form A were prepared by stirring excess Form A in the specified solvent system. The suspension was stirred overnight at 25° C. A clarifying filtration was performed and the filtrate was added to a 2 mL vial containing ˜10 mg of Form A and ˜10 mg of Form B. The resulting suspensions were stirred at 25° C. for seven days, isolated, dried under vacuum for 45 minutes, and analyzed by FT-Raman.

[2] = Solubility assessment, visually estimated by dosing solvent aliquots into 10.0 mg API; settings: thermodynamic from solid
Experimental: Solubility was assessed in an array of diverse solvents in order to facilitate the selection of solvent systems and corresponding dosing strategies for the subsequent crystal-form screening experiments.

[3] = Moisture sorption/desorption isotherms (DVS); settings: 25° C., first sorption cycle 0 to 75% RH, desolvation with solvent exchange induced by water vapour
Experimental: Moisture sorption/desorption isotherms. All experiments were performed on a DVS-1 automated gravimetric vapour sorption analyser (Surface Measurement Systems Ltd., London, UK). The DVS measures the uptake and loss of vapour gravimetrically using a Cahn D200 recording ultra-microbalance with a mass resolution of ±0.1 μg. A controlled relative humidity is generated by mixing different proportions of dry and water saturated carrier gas streams (monitored by mass flow controllers). The temperature was maintained constant, ±0.1° C., by enclosing the entire system in a temperature-controlled incubator. A sample size around 10 mg was used. Prior to being exposed to any water vapour the samples were dried at 0% relative humidity (RH) to remove any surface water present and establish a dry, baseline mass. […] Two consecutive cycles were recorded. From the complete moisture sorption and desorption profile an isotherm was calculated using the DVS Advanced Analysis Suite v3.6. […]
DVS curves are carried out at 25° C. on hexafluoroisopropanol solvate (FIG. 18). After 6 hours under nitrogen a weight loss of 5% is recorded (a partial desolvation is observed with a pre-treatment at 25° C.). During the first sorption cycle, an important weight loss is recorded between 0 and 75% RH (around 30%). […]

[4] = Characterization of crystal forms: behaviour under ambient conditions

relative stability of hydrates ([1]; 25° C., over the entire water activity range): stable hydrate | Final Form Observed ([1]; Acetone:Water (83:17), water activity 0.75, 25 °C): Form A | Final Form Observed ([1]; Ethanol, water activity 0, 25 °C): Form A | Final Form Observed ([1]; Methanol:Water (73:27), water activity 0.5, 25 °C): Form A | Final Form Observed ([1]; Water, water activity 1, 25 °C): Form A | solubility ([2]; all other solvents evaluated (of 12; not DMSO, MeOH, water), organic solvent or mixture, in all other solvents evaluated, read-out: low solubility): ≤ 5000 µg/mL | solubility ([2]; organic solvent or mixture, DCM, 40° C., read-out: Solubility at 40° C.): < 5000 µg/mL | solubility ([2]; organic solvent or mixture, DCM, RT, read-out: Solubility at RT): < 5000 µg/mL | solubility ([2]; organic solvent or mixture, DMSO, RT, read-out: Solubility at RT): > 400000 µg/mL | solubility ([2]; organic solvent or mixture, EtOAc, 40° C., read-out: Solubility at 40° C.): < 5000 µg/mL | solubility ([2]; organic solvent or mixture, EtOAc, RT, read-out: Solubility at RT): < 5000 µg/mL | solubility ([2]; organic solvent or mixture, IPA, 40° C., read-out: Solubility at 40° C.): < 5000 µg/mL | solubility ([2]; organic solvent or mixture, IPA, RT, read-out: Solubility at RT): < 5000 µg/mL | solubility ([2]; organic solvent or mixture, IPA:water (9:1) v/v, 40° C., read-out: Solubility at 40° C.): > 5000 µg/mL | solubility ([2]; organic solvent or mixture, IPA:water (9:1) v/v, RT, read-out: Solubility at RT): < 5000 µg/mL | solubility ([2]; organic solvent or mixture, IPE, 40° C., read-out: Solubility at 40° C.): < 5000 µg/mL | solubility ([2]; organic solvent or mixture, IPE, RT, read-out: Solubility at RT): < 5000 µg/mL | solubility ([2]; organic solvent or mixture, MTBE, 40° C., read-out: Solubility at 40° C.): < 5000 µg/mL | solubility ([2]; organic solvent or mixture, MTBE, RT, read-out: Solubility at RT): < 5000 µg/mL | solubility ([2]; organic solvent or mixture, MeCN, 40° C., read-out: Solubility at 40° C.): < 5000 µg/mL | solubility ([2]; organic solvent or mixture, MeCN, RT, read-out: Solubility at RT): < 5000 µg/mL | solubility ([2]; organic solvent or mixture, MeOH, RT, read-out: Solubility at RT): > 400000 µg/mL | solubility ([2]; organic solvent or mixture, THF, 40° C., read-out: Solubility at 40° C.): < 5000 µg/mL | solubility ([2]; organic solvent or mixture, THF, RT, read-out: Solubility at RT): < 5000 µg/mL | solubility ([2]; organic solvent or mixture, Toluene, 40° C., read-out: Solubility at 40° C.): < 5000 µg/mL | solubility ([2]; organic solvent or mixture, Toluene, RT, read-out: Solubility at RT): < 5000 µg/mL | solubility ([2]; Water, RT, read-out: Solubility at RT): 100000 to 400000 µg/mL (≈ 191 to 762 mM) | solubility ([2]; in DMSO, MeOH, and water): > 100000 µg/mL
SMILES: Cc1cnc(Nc2ccc(OCCN3CCCC3)cc2)nc1Nc1cccc(S(=O)(=O)NC(C)(C)C)c1 [Form A]

form change during DVS [3]: transform into Form B
SMILES: Cc1cnc(Nc2ccc(OCCN3CCCC3)cc2)nc1Nc1cccc(S(=O)(=O)NC(C)(C)C)c1 [Form H]

physical stability of the solvate [4]: efflorescent solvate
SMILES: Cc1cnc(Nc2ccc(OCCN3CCCC3)cc2)nc1Nc1cccc(S(=O)(=O)NC(C)(C)C)c1 [Form I]
